Source: publication PMC11768481 (Pharmaceuticals, 2024)
Read-outs that look alike come from different tables or passages of the source.

Assays:
[1] = system: T. cruzi Querétaro strain trypomastigotes; test: In vitro infection of HFF-1 monolayers with trypomastigotes; release of trypomastigotes on the 5th day; type: cell-based; details: Trypanosoma cruzi; for IC50: HFF-1, monotherapy, release of trypomastigotes, Queretaro strain, 5th day, read-out: IC50 Monotherapy T. cruzi i.v. Infection
Source text: To evaluate the effects of the antidiabetics alone, a model of in vitro infection with trypomastigotes of monolayers of human foreskin fibroblasts 1 (HFF-1) was used as described in the methodology; the criterium to determine efficacy was the ability to decrease the trypomastigotes’ release after the 4th–5th day post-infection. The T. cruzi Querétaro strain (TBAR/MX/0000/Querétaro) was used, which is classified in the Tc1 group, and is characterized by its high degree of virulence.
In 24-well tissue culture plates, 2 × 10^4 HFF-1 cells in 0.5 mL of DMEM + 10% FBS were deposited in each well and incubated at 37 °C for 24 h for adherence. Next, the incubation medium was changed to DMEM + 2% FBS (0.5 mL), and 3 × 10^5 trypomastigotes were added to infect cells for 2 h at 37 °C. After the incubation, the cells were vigorously washed three times with DMEM + 2% FBS to remove uninternalized trypomastigotes, taking care to preserve the monolayer integrity. Then, the infected cells were incubated in DMEM + 2% FBS for 4–5 days in the absence or presence of BNZ (0, 0.05, 0.1, 0.2, 0.5 µM) and antidiabetics (0, 1, 10, 25, 50 µM) in monotherapy; the drug compounds were purchased from SIGMA. For bi-therapy, the same concentrations of BNZ were used in the presence of 0.5 or 1 µM of antidiabetics. […] In every independent assay, a control of infected cells without BNZ or antidiabetics was always included, which served as no treatment. The number of released mobile trypomastigotes on the 5th day was determined by light microscopy using a Neubauer chamber.
(§1) For the IC50 calculation, individual data curves were fitted to the dose–response equation: y=A1+(A2−A1)/(1+10^(logx0−x)×p), where A1 < A2; p > 0; bottom asymptote: A1 = 1; top asymptote: A2 = 2; center: logx0 = −1; hill slope: p = 0.2; or logistic equation y=A2+(A1−A2)/(1+x/x0)^p, where A1 = initial value, A2 = final value, x0 = center and p = power using the Origin 8 Software. The IC50 values were manually selected from the curves fit.

[2] = system: HFF-1 cells; test: HFF-1 host cell growth after 5 days (Trypan blue exclusion count); type: cell-based, human; details: for IC50: Homo sapiens, HFF-1, 120 h, monotherapy, HFF-1 growth, 5 days, read-out: IC50 Monotherapy HFF-1 (n = 3)
Procedure: For HFF-1 IC50 evaluation, BNZ and the antidiabetic were varied as described above for the infection cultures, and cell proliferation was determined on the 5th day of growth, and the viability was determined by 0.2% Trypan blue exclusion (Corning Inc.; Corning, NY, USA). Briefly, the cells were washed twice with PBS-EDTA and later trypsinized for detachment. The cell suspension was homogenized with 150 µL of DMEM + 2% FBS, and an aliquot of 50 µL was diluted 1:1 with the solution of Trypan blue. The number of viable cells was counted using a Neubauer chamber under a microscope.
as §1

[3] = system: T. cruzi Ninoa strain; test: Short-term monotherapy in mice infected with T. cruzi; blood trypomastigote count; type: in vivo, CD1 mice; details: single dose 100 mg/kg, intragastric, at peak of parasitemia, 8 h compared to time 0
Procedure: The effect of the antidiabetic drugs and BNZ in the clearance of blood trypomastigotes in mice infected with T. cruzi in acute drug treatment in monotherapy was evaluated. Trypanosoma cruzi Ninoa strain was used for these experiments; this strain is classified in the Tc1 group like the Querétaro strain [27]; Ninoa is characterized by lower virulence and therefore lower mortality in mice compared to the Querétaro strain [28]. However, epimastigotes of Ninoa strain are more resistant to BNZ [27]. Then, the T. cruzi Ninoa strain seems to be a more appropriate parasitic source to evaluate drug susceptibility in mice.
Mice of the CD1 strain were infected with Ninoa strain (MHOM/MX/1994/Ninoa) following modified protocols previously reported. Briefly, blood trypomastigotes obtained from an infected mouse were diluted with 0.9% saline solution at a density of 1 × 10^5 trypomastigotes/mL, and 0.1 mL were intraperitoneally inoculated in mice weighing 30–40 g. […] After reaching a parasitemia peak of 22 × 10^6 blood trypomastigotes/mL (12–18 days post-inoculation), the mice were separated into 5 groups of 3 mice each for drug treatment (for bioethical requirements, the number of animals used was kept at a minimum, and 3 mice per group was sufficient to perform statistical analysis). BNZ and antidiabetic drugs at a concentration of 100 mg/kg weight; doses of 3.16–3.79 mg (depending on the weight of the mice) were administered, diluted in 0.5 mL of vehicle (Arabic gum at 4%, diluted in purified water) using an intragastric tube. Then, 5 µL of blood were immediately extracted from the caudal vein (t = 0), and blood sampling was performed every 2 h up to 8 h. Trypomastigotes were counted using a modified protocol of that reported by Pizzi–Brenner, as reported before. […] The criterion for evaluating efficacy was the percentage of trypanocidal effect at 8 h compared to time 0.

[4] = system: T. cruzi Querétaro strain epimastigotes; test: Thiol metabolites (Cys, GSH, T(SH)2) in epimastigotes by HPLC; type: cell-based, Trypanosoma cruzi; details: 1 µM drug alone, 24 h
Procedure: Since thiol metabolite determination requires high amounts of biological material, the thiol determination content was performed in epimastigotes of the Queretaro strain. A 0.2 L culture of LIT medium was inoculated with epimastigotes at a density of 0.7 × 10^6 parasites/mL. The culture was incubated for 72 h at 28 °C, reaching, at the exponential growth phase, a concentration of 3 × 10^6 parasites/mL. The culture was separated into 8 aliquots of 25 mL, and 1 µM BNZ was added alone or in combination with 1 µM of the antidiabetic drugs. The cultures were incubated for 24 h at 28 °C. Subsequently, 1 mL of each sample was separated for protein determination, and the rest was used for thiol determination. Both samples were centrifuged at 20,817× g for 10 min; the pellets were washed twice with PBS. The pellets for protein were resuspended in 100 µL of Lowry’s solution A (2% Na2CO3, 0.4% NaOH, 0.16% Na-K tartrate, 1% SDS) and stored at −70 °C until protein determination using the Lowry method. The parasite pellets for thiol metabolite determination were immediately lysed by incubation in liquid nitrogen and stored at −70 °C.
Thiol determination was performed as described before. Cell lysates were thawed and resuspended in 90 µL of lysis buffer (20 mM Hepes, 1 mM EDTA, 0.15 mM KCl at pH 7), 20 mM DTT was added to each sample, and three cycles of freezing in liquid nitrogen and thawing at 37 °C were performed. The samples were centrifuged at 20,817× g for 10 min, and the supernatant was reduced with 2% sodium borohydride (NaBH4) and incubated for 10 min on ice. Then, perchloric acid was added at a final concentration of 3%, and the sample was centrifuged at 20,187× g for 2 min. The supernatant was filtered through a syringe-driven filter unit (0.45 µm) (Millipore; Carrigtwohill, County Cork, Ireland) and 20 µL of the eluate was injected in a high-performance liquid chromatography (HPLC) apparatus (Waters; Milford, MA, USA). The metabolites were separated in a C18 reverse-phase column (Altima, Columbia, MD, USA) using a mixture of acetonitrile—0.1% trifluoroacetic acid and a flux of 0.5 mL/min. The thiol metabolites were post-column derivatized with 0.1 mM di-thio-bis nitrobenzoic acid (DTNB), and the absorbance was detected at 412 nm with a UV-Vis detector coupled to the HPLC apparatus.

[5] = system: T. cruzi epimastigotes; details: cited from earlier work
[6] = design: method as in PMID 28673423, PMID 32592664, PMID 33043726; details: ref 1, 7, 8; cited from earlier work
[7] = system: Leishmania; details: alone; cited from earlier work
[8] = system: Leishmania donovani promastigotes; design: method as in PMID 30827222; details: ref 23; cited from earlier work
[9] = system: Echinococcus granulosus; design: method as in PMID 29190739; details: monotherapy; cited from earlier work
[10] = ref 15, read-out: IC50 on the growth of epimastigotes

IC50 [1] | Structure (SMILES) | inhibition at 0.2 µM ([1]; HFF-1, read-out: inhibition of infection) | decrease of the growth of host cells ([2]; 0.26 µM BNZ in monotherapy) | IC50 [2] | decrease of the infection (blood trypomastigotes) [3] | Cys level [4] | T(SH)2 level [4] | IC50 ([5]; CLBrener strain, read-out: IC50 on growth of epimastigotes) | IC50 ([5]; Ninoa strain, read-out: IC50 on growth of epimastigotes) | IC50 ([5]; Querétaro strain, read-out: IC50 on growth of epimastigotes) | IC50 ([5]; ref 25, read-out: IC50 on the growth of epimastigotes) | IC50 ([5]; ref 38, read-out: IC50 on the growth of epimastigotes) | rate of treatment interruption [6] | GSH level [4] | IC50 [5, 10] | effect on Leishmania infection [7] | growth of Leishmania donovani promastigotes [8] | activity on Echinococcus granulosus infection in mice [9] | decrease in Cys [4]
7.6 ± 2 µM | COc1ccc2c(c1)C(=O)N(CCc1ccc(S(=O)(=O)NC(=O)NC3CCCCC3)cc1)C(=O)C2(C)C [GLQ, gliquidone] | – | – | – | lower effect than BNZ | increased | decreased | – | – | – | – | – | – | decreased | 12 µM | – | – | – | –
8.4 ± 6.3 µM | COc1ccc(Cl)cc1C(=O)NCCc1ccc(S(=O)(=O)NC(=O)NC2CCCCC2)cc1 [GBD, glyburide] | – | – | – | 60% | increased | decreased | – | – | – | – | – | – | decreased | 66 µM | decreased the infection | decreased their growth | anti-helmintic activity | –
14.3 ± 7 µM | Cc1cnc(C(=O)NCCc2ccc(S(=O)(=O)NC(=O)NC3CCCCC3)cc2)cn1 [GPZ, glipizide] | – | – | 35 ± 19 µM | 60% | decreased | increased | – | – | – | – | – | – | – | 13.4 µM | – | – | – | ~50%
– | CC1CS(=O)(=O)CCN1/N=C/c1ccc([N+](=O)[O-])o1 (stereo not drawn) [nifurtimox] | – | – | – | – | – | – | – | – | – | – | – | 14–75% | – | – | – | – | – | –

Structure (SMILES) | IC50 [1] | inhibition at 0.2 µM ([1]; HFF-1, read-out: inhibition of infection) | decrease of the growth of host cells ([2]; 0.26 µM BNZ in monotherapy) | IC50 [2] | decrease of the infection (blood trypomastigotes) [3] | Cys level [4] | T(SH)2 level [4] | IC50 ([5]; CLBrener strain, read-out: IC50 on growth of epimastigotes) | IC50 ([5]; Ninoa strain, read-out: IC50 on growth of epimastigotes) | IC50 ([5]; Querétaro strain, read-out: IC50 on growth of epimastigotes) | IC50 ([5]; ref 25, read-out: IC50 on the growth of epimastigotes) | IC50 ([5]; ref 38, read-out: IC50 on the growth of epimastigotes) | rate of treatment interruption [6] | GSH level [4] | IC50 [5, 10] | effect on Leishmania infection [7] | growth of Leishmania donovani promastigotes [8] | activity on Echinococcus granulosus infection in mice [9] | decrease in Cys [4]
O=C(Cn1ccnc1[N+](=O)[O-])NCc1ccccc1 [BNZ, benznidazole] | 0.26 ± 0.01 µM | 40% | 20% | 0.9 ± 0.09 µM | 80% | slightly decrease | not observed | 5.54 µM | 8.21 µM | 4.29 µM | 12 ± 2 µM | 9.4 ± 1.3 µM | 9–29% | – | – | – | – | – | –
